Source: US12622910B2, “Inhibitors of Bruton's tyrosine kinase and methods of their use” (Janssen Pharmaceutica NV, priority 2021, dated 2026)
Like-named read-outs stand apart in the source and are kept apart here.

Tests used:
[1] = Metabolic stability in hepatocytes; type: in vitro ADME; settings: for half-life: read-out: T1/2, hepatocytes
Method: (§1) Additional Data on Preclinical PK Profile—Protein binding of the compound of Formula (III) was studied using an equilibrium dialysis method in plasma from human, cynomolgus monkey, beagle dog, Sprague Dawley rat, CD-1 mouse, and guinea pig at 0.25, 2.5, and 25 μM. […] In human and monkey, the plasma protein binding was concentration dependent. […] Free fraction of the compound of Formula (III) in liver microsomes from various species ranged from 75.1% to 87.9% at 0.25 mg/mL and from 58.9% to 86.5% at 1.0 mg/mL (Table 17). […] In hepatocytes, the compound of Formula (III) turnover followed a similar trend, with T1/2 ranging from 75.3 minutes in monkey to 278.1 minutes in human.

Liver microsomal binding = type: in vitro ADME; settings: liver microsomes, read-out: % Free in liver microsomes
Method: as §1

CYP1A = experiment: CYP induction in plated human hepatocytes, phenacetin probe; type: in vitro ADME; settings: 48 hours
BTK [2] = target: T1, BTK (Homo sapiens, UniProt Q06187); experiment: Phase 1 study, BTK occupancy in PBMCs; type: in vivo; parameters: measuring free BTK levels in peripheral blood mononuclear cells (PBMCs) and calculating % BTKO; endogenous in cells; host or cells: human PBMCs, lysed after isolation from whole blood; settings: for BTKO at 24 hr, ss, median observed / Calculated Average BTKO, observed / Max BTKO at ss, median observed: Day 10 oral solution; for mean BTKO: all MAD dose groups
Method: Pharmacodynamics (BTKO)—In Part 1, venous blood samples (8 mL) were collected predose and at 1, 2, 4, 8, 12, 24, 48, and 72 hours post-dose for measuring free BTK levels in peripheral blood mononuclear cells (PBMCs) and calculating % BTKO. In Part 2, blood samples were taken on day 1 predose and at 2, 4, and 8 hours after dosing; days 2-10 predose and 4 hours post-dose; and at 24, 48, and 72 hours after the last dose and at the follow-up visit.
After PBMCs were isolated from whole blood, they were lysed and prepared for the measurement of BTK occupancy using a custom streptavidin-coated Meso Scale Discovery (MSD) immunoassay. Percent occupancy was calculated as 100%×([Baseline free BTK−Free BTK with treatment]/Baseline Free BTK).

[3] = Metabolic stability in liver microsomes; type: in vitro ADME, mouse
Method: as §1

BTK [4] = target: T1, BTK; experiment: ActivX KiNativ native kinase profiling, Ramos cell lysates; type: binding; parameters: endogenous in cells
Method: (§2) RESULTS AND DISCUSSION—Selectivity—The compound of Formula (III) was evaluated in three selectivity panels to assess the potential for off-target pharmacology (Table 8). […] The kinase off-target profile of The compound of Formula (III) was assessed in a full human wild-type panel using radiometric kinase activity assays (KinaseProfiler™ and IC50Profiler™; Eurofins Scientific) (Table 9; FIG. 23). The compound of Formula (III) inhibited 4/278 kinases >50% at 1 micromolar, identifying BTK and the three other kinases having analogous Cys residues with the potential for covalent inhibition (BMX, TEC, BLK). […]. The cellular kinase selectivity of The compound of Formula (III) was established in native Ramos B cell kinome assays (KiNativ™; ActivX) confirmed BTK as the primary target with inhibition of BLK and TEC inhibition detected (Table 10).

MDCK-MDR1 (Pgp) = experiment: MDCK-MDR1 permeability and efflux
Method: In vitro Absorption, Distribution, Metabolism, and Excretion—The compound of Formula (III) was assessed at a concentration of 5 μM in cell permeability models.

TEC = target: T2, TEC (Homo sapiens, UniProt P42680); experiment: ActivX KiNativ native kinase profiling, Ramos cell lysates; type: binding
T2 construct: purchased Eurofins Scientific
T2 sequence (P42680 1-631): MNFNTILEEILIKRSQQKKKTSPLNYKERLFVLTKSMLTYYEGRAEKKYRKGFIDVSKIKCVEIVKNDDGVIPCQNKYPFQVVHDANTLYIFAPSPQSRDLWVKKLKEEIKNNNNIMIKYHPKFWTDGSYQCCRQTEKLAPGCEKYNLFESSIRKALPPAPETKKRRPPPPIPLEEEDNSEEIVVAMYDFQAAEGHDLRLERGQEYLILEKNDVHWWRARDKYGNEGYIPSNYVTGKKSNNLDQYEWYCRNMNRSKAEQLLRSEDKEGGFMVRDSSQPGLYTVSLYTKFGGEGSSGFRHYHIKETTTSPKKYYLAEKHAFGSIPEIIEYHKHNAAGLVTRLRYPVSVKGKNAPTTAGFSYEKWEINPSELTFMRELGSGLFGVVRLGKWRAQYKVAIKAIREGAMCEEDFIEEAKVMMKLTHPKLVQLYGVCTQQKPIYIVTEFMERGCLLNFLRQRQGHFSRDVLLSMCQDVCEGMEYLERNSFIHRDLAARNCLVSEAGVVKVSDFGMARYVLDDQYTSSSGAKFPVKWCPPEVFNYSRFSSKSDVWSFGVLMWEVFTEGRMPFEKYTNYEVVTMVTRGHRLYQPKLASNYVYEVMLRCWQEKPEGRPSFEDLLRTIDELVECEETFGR
Method: as §2

BLK = target: T3, BLK (Homo sapiens, UniProt P51451); experiment: as above; type: binding; settings: activation loop labelling
T3 construct: purchased Eurofins Scientific
Method: as §2

T1 sequence (Q06187 whole entry): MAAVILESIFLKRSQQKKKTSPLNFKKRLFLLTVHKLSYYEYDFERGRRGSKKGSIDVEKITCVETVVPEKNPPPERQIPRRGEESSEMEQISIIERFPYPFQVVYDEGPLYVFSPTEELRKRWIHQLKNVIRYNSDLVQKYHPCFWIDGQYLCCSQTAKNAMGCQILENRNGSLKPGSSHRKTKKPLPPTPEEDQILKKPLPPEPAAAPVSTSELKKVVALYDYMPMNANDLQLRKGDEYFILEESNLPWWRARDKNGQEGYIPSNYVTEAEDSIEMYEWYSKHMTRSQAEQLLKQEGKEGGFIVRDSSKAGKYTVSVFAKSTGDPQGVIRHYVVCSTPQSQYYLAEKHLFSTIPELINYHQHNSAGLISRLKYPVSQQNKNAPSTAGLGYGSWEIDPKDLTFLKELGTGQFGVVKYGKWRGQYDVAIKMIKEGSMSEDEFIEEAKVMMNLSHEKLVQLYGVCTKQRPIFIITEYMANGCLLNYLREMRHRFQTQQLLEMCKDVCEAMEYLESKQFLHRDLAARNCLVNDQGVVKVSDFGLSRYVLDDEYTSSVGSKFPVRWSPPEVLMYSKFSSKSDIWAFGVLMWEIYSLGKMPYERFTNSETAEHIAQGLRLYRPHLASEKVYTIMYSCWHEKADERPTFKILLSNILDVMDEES
T3 sequence (P51451 whole entry): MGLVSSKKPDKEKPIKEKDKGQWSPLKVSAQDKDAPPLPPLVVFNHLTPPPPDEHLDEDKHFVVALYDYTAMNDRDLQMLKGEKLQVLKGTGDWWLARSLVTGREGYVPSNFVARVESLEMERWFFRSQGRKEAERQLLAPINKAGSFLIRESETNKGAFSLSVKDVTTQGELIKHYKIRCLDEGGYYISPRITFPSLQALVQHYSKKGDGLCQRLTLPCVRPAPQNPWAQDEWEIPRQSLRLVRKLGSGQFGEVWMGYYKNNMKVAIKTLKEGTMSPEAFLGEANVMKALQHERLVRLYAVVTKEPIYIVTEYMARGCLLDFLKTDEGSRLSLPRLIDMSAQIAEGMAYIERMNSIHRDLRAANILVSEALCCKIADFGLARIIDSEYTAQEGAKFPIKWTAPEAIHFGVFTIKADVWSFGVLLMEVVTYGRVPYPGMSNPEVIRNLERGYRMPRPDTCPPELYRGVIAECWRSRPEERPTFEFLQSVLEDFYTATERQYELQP

C=CC(=O)N[C@H]1CCC[C@H]1NC(=O)c1sc2nccc3c2c1NC(=O)N3c1cnc(CC(C)C)cc1C (atropisomer, axis not shown) [compound of Formula (III), N-((1R,2S)-2-Acrylamidocyclopentyl)-5-(S)-(6-isobutyl-4-methylpyridin-3-yl)-4-oxo-4,5-dihydro-3H-1-thia-3,5,8-triazaacenaphthylene-2-carboxamide]
hepatocyte CLint ([1]; dog): 19.2 µL/min/1e6 cells
half-life ([1]; dog): 4.62 h
hepatocyte CLint ([1]; human): 15.4 µL/min/1e6 cells
half-life ([1]; human): 4.64 h
hepatocyte CLint ([1]; rat): 52.3 µL/min/1e6 cells
half-life ([1]; rat): 2.12 h
fraction unbound at 1 μM (Liver microsomal binding; dog, 0.25 mg/mL): 0.879
fraction unbound at 1 μM (Liver microsomal binding; dog, 1.0 mg/mL): 0.694
fraction unbound at 1 μM (Liver microsomal binding; human, 0.25 mg/mL): 0.758
fraction unbound at 1 μM (Liver microsomal binding; human, 1.0 mg/mL): 0.641
fraction unbound at 1 μM (Liver microsomal binding; monkey, 0.25 mg/mL): 0.751
fraction unbound at 1 μM (Liver microsomal binding; monkey, 1.0 mg/mL): 0.589
fraction unbound at 1 μM (Liver microsomal binding; mouse, 1.0 mg/mL): 0.82
fraction unbound at 1 μM (Liver microsomal binding; rat, 0.25 mg/mL): 0.84
fraction unbound at 1 μM (Liver microsomal binding; rat, 1.0 mg/mL): 0.865
change in CYP1A enzyme activity (CYP1A; 1 μM): 0.2%
change in CYP1A enzyme activity (CYP1A; 10 μM): 1.0%
BTKO at 24 hr, ss, median observed (BTK [2]; 36 mg QD): 69.5%
Calculated Average BTKO, observed (BTK [2]; 36 mg QD): 74.2%
Max BTKO at ss, median observed (BTK [2]; 36 mg QD): 78.9%
mean % BTKO (BTK [2]; 36 mg QD, day 1, 4 hours): 34%
mean % BTKO (BTK [2]; 36 mg QD, day 10, 4 hours): 80%
BTKO at 24 hr, ss, median observed (BTK [2]; 100 mg QD): 84.1%
Calculated Average BTKO, observed (BTK [2]; 100 mg QD): 89.1%
Max BTKO at ss, median observed (BTK [2]; 100 mg QD): 94.1%
mean % BTKO (BTK [2]; 100 mg QD, day 1, 4 hours): 61%
mean % BTKO (BTK [2]; 100 mg QD, day 10, 4 hours): 91%
BTKO at 24 hr, ss, median observed (BTK [2]; 200 mg QD): 78.9%
Calculated Average BTKO, observed (BTK [2]; 200 mg QD): 88.8%
Max BTKO at ss, median observed (BTK [2]; 200 mg QD): 98.8%
mean % BTKO (BTK [2]; 200 mg QD, day 1, 4 hours): 94%
mean % BTKO (BTK [2]; 200 mg QD, day 10, 4 hours): 98%
mean % BTKO lower, capsule vs solution (BTK [2]; 4 hours post-dose): ≈ 37%
mean % BTKO lower, capsule vs solution (BTK [2]; 24 hours post-dose): ≈ 30%
mean % BTKO at follow-up visit (7-14 days) (BTK [2]; Part 1, all treatment groups): ≤ 42%
mean % BTKO at follow-up visit (7 to 14 days) (BTK [2]; Part 2, all treatment groups): < 40%
mean BTKO (BTK [2]; 24 hours after Day 10 dose): above 65%
mean BTKO (BTK [2]; 72 hours after Day 10 dose): > 30%
mean % BTKO (BTK [2]; single 36 mg, females, 4 hours): 55%
mean % BTKO (BTK [2]; single 36 mg, males, 4 hours): 39%
peak mean % BTKO (BTK [2]; single 100 mg solution, fed, 8 hours post-dose): 73%
mean % BTKO (BTK [2]; single 100 mg solution, male fasted, 4 hours post-dose): 86%
mean % BTKO (BTK [2]; single 100 mg, females, 4 hours): 81%
mean % BTKO (BTK [2]; single 105 mg capsule, 4 hours): 54%
mean % BTKO (BTK [2]; single 105 mg capsule, 24 hours): 53%
maximum % BTKO (mean) (BTK [2]; single and multiple doses ≥100 mg): ≥ 90%
duration of BTKO (BTK [2]; single doses ≥100 mg): up to 72 hours
% BTKO (BTK [2]; single doses ≥100 mg, male fasted, 4 hours): ~100%
Extraction Ratio, liver microsomes ([3]; Mouse): 0.79
microsomal CLint ([3]; mouse, liver microsomes): 142 µL/min/mg
half-life ([3]; mouse, liver microsomes, read-out: T1/2, liver microsomes): 4.9 min
inhibition at 1 µM (BTK [4]; Lys labelling): 90.3%
inhibition at 1 µM (BTK [4]; activation loop labeling): 94.4%
Efflux Ratio (BA/AB) (MDCK-MDR1 (Pgp)): >115
inhibition at 1 µM (TEC): 77.6%
inhibition at 1 µM (BLK): 61.9%
